Laboratory results reported in BindingDB's records for doi:10.1021/jm051059p (Merck Frosst Centre For Therapeutic Research, 2006).

Biological target: T1, Cathepsin K (Oryctolagus cuniculus, UniProt P43236)
T1 sequence (P43236 whole entry): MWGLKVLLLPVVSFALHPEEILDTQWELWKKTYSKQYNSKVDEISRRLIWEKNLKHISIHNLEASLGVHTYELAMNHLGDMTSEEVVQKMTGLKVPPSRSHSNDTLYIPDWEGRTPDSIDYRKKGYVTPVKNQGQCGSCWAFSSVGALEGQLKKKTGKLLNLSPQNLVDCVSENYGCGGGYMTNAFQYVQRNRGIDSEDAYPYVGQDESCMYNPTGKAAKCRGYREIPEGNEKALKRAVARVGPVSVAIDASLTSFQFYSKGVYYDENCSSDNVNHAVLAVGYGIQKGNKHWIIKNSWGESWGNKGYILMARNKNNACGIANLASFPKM
Test: Enzyme Inhibition Assay
Description: Prior to the addition of substrate, different concentrations of the inhibitor ranging from 100 uM to 0.2 nM were preincubated for 15 min with enzyme to allow the establishment of the enzyme-inhibitor complex. The proteolytic cleavage of N-acyl aminocoumarins by cathepsins was conducted in 96-well plate format and the plate read using a Spectramax (Molecular Devices) plate reader. The excitation wavelength was 355 nm and the emission wavelength was 460 nm for peptidyl-AMC substrates. The percent inhibition of the reaction was calculated from a control reaction containing only vehicle. IC50 curves were generated by fitting percent inhibition values to a four parameter logistic model (SOFTMAX PRO, Molecular Devices).

SMILES: CSc1ccc(/C=C\[C@@H]2CCCC[C@H]2C(=O)NCC#N)cc1 (racemic) [racemic mixture]
- IC50 (pH 5.5, 22 °C): 0.5 nM

SMILES: N#CCNC(=O)[C@@H]1CC(F)(F)CC[C@H]1c1ccccc1-c1ccc(F)cc1 (racemic) [racemic mixture]
- IC50: 19 nM

SMILES: N#CCNC(=O)[C@@H]1CCCC[C@H]1CSc1ccc(N)cc1 (racemic) [racemic mixture]
- IC50 (pH 5.5, 22 °C): 100 nM

SMILES: CSc1ccc(CC[C@@H]2CCCC[C@H]2C(=O)NCC#N)cc1 [racemic mixture]
- IC50 (pH 5.5, 22 °C): 1.7 nM

SMILES: Cc1ccc(SC[C@@H]2CCCC[C@H]2C(=O)NCC#N)cc1 [racemic mixture]
- IC50 (pH 5.5, 22 °C): 100 nM
